Experimental findings from patent US6346260B1, “Microbicidal active ingredients” (Ciba Specialty Chemicals Corporation, priority 1999, dated 2002) are described below.

Common to all, as to assay type: cell-based
Assay [1] relates to Candida albicans ATCC 10231. Kind of assay: MIC in microtitre plates, Candida albicans. The following applies: Candida albicans, ATCC10231; Table 1; ATCC 10231; 48 hours at 37° C.; ≦20% growth; read-out: MIC Candida albicans. The protocol: (§1) Determination of Antimicrobial Activity in Accordance with the Microtitre Plate Method Determination of the Minimum Inhibitory Concentration (MIC value) in Microtitre Plates casein-soybean flour-peptone bouillon for the preparation of the precultures of the test bacteria and yeast. Candida albicans ATCC 10231 The test substances are predissolved in dimethyl sulfoxide (DMSO) and tested in a dilution series of 1:2. Bacteria and yeast are cultured overnight in CASO bouillon, the mould on mycological slant agar and rinsed off with 10 ml of 0.85% sodium chloride solution (+0.1% TritonX-100). All test organisms are adjusted to an organism count of 1-5*10^6 CFU/ml with 0.85% sodium chloride solution. The test substances are prepipetted into microtitre plates in an amount of 8 μl per well. Previously diluted test organism suspensions are diluted 1:100 in CASO bouillon (bacteria and yeast) and Sabouraud 2% glucose bouillon (mould) and added to the test substances in an amount of 192 μl per well. The test batches are incubated for 48 hours at 37° C. (bacteria and yeast) or for 5 days at 28° C. (mould). After incubation, the growth is determined by reference to the turbidity of the test batches (optical density) at 620 nm in a microplate reader. The minimum inhibitory concentration (MIC value) is the concentration of substance at which (compared with the growth of the control) an appreciable inhibition of the growth (≦20% growth) of the test organisms is ascertained. One microtitre plate is used for each test organism and substance concentration. All substances are tested in duplicate.

The test system of assay [2] is Rhizopus stolonifer DSM 63011. Nature of the assay: MIC in microtitre plates, Rhizopus stolonifer. The following applies: DSM63011, 120 h, Table 1, 5 days at 28° C., ≦20% growth. The protocol:
as §1, with “Mycological slant agar” for “casein-soybean flour-peptone bouillon”, “preculture” for “preparation”, “moulds. Rhizopus stolonifer DSM 63011” for “the precultures of the test bacteria and yeast. Candida albicans ATCC 10231”, “The minimum inhibitory concentration (MIC value) is the concentration of substance at which (compared with the growth of the control) an appreciable inhibition of the growth (≦20% growth) of the test organisms is ascertained. One microtitre plate is used for each test organism and substance concentration. All substances are tested in duplicate.” left out

Assay [3] deals with Staphylococcus aureus ATCC 9144. Kind of assay: MIC in microtitre plates, Staphylococcus aureus. Conditions: ATCC9144, Table 1, 48 hours at 37° C., ≦20% growth. On the procedure:
as §1, with “Staphylococcus aureus” for “Candida albicans”, “9144” for “10231”, “The minimum inhibitory concentration (MIC value) is the concentration of substance at which (compared with the growth of the control) an appreciable inhibition of the growth (≦20% growth) of the test organisms is ascertained. One microtitre plate is used for each test organism and substance concentration. All substances are tested in duplicate.” left out

Assay [4] concerns Escherichia coli NCTC 8196. Nature of the assay: MIC in microtitre plates, Escherichia coli. The following applies: Escherichia coli, NCTC8196; Table 1; NCTC 8196; 48 hours at 37° C.; ≦20% growth; read-out: MIC Escherichia coli. On the procedure: as §1, with “Escherichia coli NCTC 8196” for “Candida albicans ATCC 10231”

For `O=C(CC(=O)c1ccccc1O)c1ccco1` [Compound of formula (101)], the MIC in assay [1] was 100 to 500 mg/L; in assay [2], 50 mg/L; in assay [3], 100 to 500 mg/L; in assay [4], 50 mg/L.

Broadly, the MIC is the least concentration at which growth counts as inhibited.
